Assay results taken from the NIST ThermoML archive (doi:10.1016/j.jct.2015.02.011).
Numbers after ± are expanded uncertainties.

Assay: xn = mol fraction of the nth substance listed
Conditions: 100.7 kPa, Liquid; for speed of sound: Frequency=3 MHz, Sing-around technique in a fixed-path interferometer; for mass density: Vibrating tube method

CCCCn1cc[n+](C)c1.F[P-](F)(F)(F)(F)F [1-butyl-3-methylimidazolium hexafluorophosphate] + C1CCOC1
Conditions	mass density [kg/m3]	speed of sound [m/s]
293.15 K, x1 = 0.0871	995.952 ± 1.6	1325.2 ± 2.3
293.15 K, x1 = 0.1801	1081.84 ± 1.6	1346.3 ± 2.3
293.15 K, x1 = 0.2893	1156.12 ± 1.6	1370.2 ± 2.4
293.15 K, x1 = 0.3939	1209.17 ± 1.7	1390.1 ± 2.4
293.15 K, x1 = 0.4994	1250.52 ± 1.7	1405.6 ± 2.5
293.15 K, x1 = 0.5709	1274.06 ± 1.8	1414.3 ± 2.6
293.15 K, x1 = 0.7163	1313.42 ± 1.9	1431.1 ± 2.7
293.15 K, x1 = 0.8069	1333.96 ± 2	1439.1 ± 2.7
293.15 K, x1 = 0.9012	1352.78 ± 2.1	1447.9 ± 2.8
293.15 K, x1 = 1	1370.41 ± 2.2	1454.6 ± 2.9
298.15 K, x1 = 0.0871	993.083 ± 1.6	1305.7 ± 2.3
298.15 K, x1 = 0.1801	1078.67 ± 1.6	1329.4 ± 2.3
298.15 K, x1 = 0.2893	1153.55 ± 1.6	1354.8 ± 2.4
298.15 K, x1 = 0.3939	1206.51 ± 1.7	1375.2 ± 2.4
298.15 K, x1 = 0.4994	1247.95 ± 1.7	1391.7 ± 2.5
298.15 K, x1 = 0.5709	1270.99 ± 1.8	1400.3 ± 2.6
298.15 K, x1 = 0.7163	1309.95 ± 1.9	1419.2 ± 2.7
298.15 K, x1 = 0.8069	1330.6 ± 2	1428.8 ± 2.7
298.15 K, x1 = 0.9012	1349.01 ± 2.1	1436.5 ± 2.8
298.15 K, x1 = 1	1366.26 ± 2.2	1442.3 ± 2.9
303.15 K, x1 = 0.0871	989.595 ± 1.6	1286.1 ± 2.3
303.15 K, x1 = 0.1801	1076.18 ± 1.6	1313.5 ± 2.3
303.15 K, x1 = 0.2893	1151.06 ± 1.6	1337.9 ± 2.4
303.15 K, x1 = 0.3939	1204.02 ± 1.7	1359.3 ± 2.4
303.15 K, x1 = 0.4994	1245.06 ± 1.7	1375.7 ± 2.5
303.15 K, x1 = 0.5709	1268.4 ± 1.8	1386.6 ± 2.6
303.15 K, x1 = 0.7163	1306.96 ± 1.9	1406.2 ± 2.7
303.15 K, x1 = 0.8069	1327.01 ± 2	1416.4 ± 2.7
303.15 K, x1 = 0.9012	1345.27 ± 2.1	1425.1 ± 2.8
303.15 K, x1 = 1	1362.13 ± 2.2	1430.2 ± 2.9
308.15 K, x1 = 0.0871	986.865 ± 1.6	1264.2 ± 2.3
308.15 K, x1 = 0.1801	1073.65 ± 1.6	1294.6 ± 2.3
308.15 K, x1 = 0.2893	1148.53 ± 1.6	1322.9 ± 2.4
308.15 K, x1 = 0.3939	1201.49 ± 1.7	1344.4 ± 2.4
308.15 K, x1 = 0.4994	1242.03 ± 1.7	1362.9 ± 2.5
308.15 K, x1 = 0.5709	1265.07 ± 1.8	1374.2 ± 2.6
308.15 K, x1 = 0.7163	1303.84 ± 1.9	1394.4 ± 2.7
308.15 K, x1 = 0.8069	1323.78 ± 2	1404.5 ± 2.7
308.15 K, x1 = 0.9012	1341.44 ± 2.1	1414.8 ± 2.8
308.15 K, x1 = 1	1357.86 ± 2.2	1418.4 ± 2.9
313.15 K, x1 = 0.0871	983.099 ± 1.6	1243.5 ± 2.3
313.15 K, x1 = 0.1801	1072.08 ± 1.6	1276.9 ± 2.3
313.15 K, x1 = 0.2893	1145.97 ± 1.6	1306.3 ± 2.4
313.15 K, x1 = 0.3939	1198.83 ± 1.7	1329.7 ± 2.4
313.15 K, x1 = 0.4994	1239.66 ± 1.7	1347.2 ± 2.5
313.15 K, x1 = 0.5709	1261.91 ± 1.8	1358.4 ± 2.6
313.15 K, x1 = 0.7163	1300.27 ± 1.9	1380.9 ± 2.7
313.15 K, x1 = 0.8069	1320.11 ± 2	1392.8 ± 2.7
313.15 K, x1 = 0.9012	1337.58 ± 2.1	1398.9 ± 2.8
313.15 K, x1 = 1	1353.88 ± 2.2	1406.7 ± 2.9
318.15 K, x1 = 0.0871	979.072 ± 1.6	1220.9 ± 2.3
318.15 K, x1 = 0.1801	1069.07 ± 1.6	1258.4 ± 2.3
318.15 K, x1 = 0.2893	1144.86 ± 1.6	1289.6 ± 2.4
318.15 K, x1 = 0.3939	1197.02 ± 1.7	1313.9 ± 2.4
318.15 K, x1 = 0.4994	1238.26 ± 1.7	1333 ± 2.5
318.15 K, x1 = 0.5709	1259.52 ± 1.8	1344 ± 2.6
318.15 K, x1 = 0.7163	1297.6 ± 1.9	1367.3 ± 2.7
318.15 K, x1 = 0.8069	1316.65 ± 1.9	1380.3 ± 2.7
318.15 K, x1 = 0.9012	1333.97 ± 2.1	1389.5 ± 2.8
318.15 K, x1 = 1	1349.88 ± 2.2	1395.2 ± 2.9
323.15 K, x1 = 0.0871	974.942 ± 1.7	1200.6 ± 2.3
323.15 K, x1 = 0.1801	1067.03 ± 1.6	1239.9 ± 2.3
323.15 K, x1 = 0.2893	1143.59 ± 1.7	1272.2 ± 2.4
323.15 K, x1 = 0.3939	1195.57 ± 1.7	1295.6 ± 2.4
323.15 K, x1 = 0.4994	1235.58 ± 1.7	1319.5 ± 2.5
323.15 K, x1 = 0.5709	1256.95 ± 1.8	1330.6 ± 2.5
323.15 K, x1 = 0.7163	1294.51 ± 1.9	1355.4 ± 2.7
323.15 K, x1 = 0.8069	1312.86 ± 1.9	1368.5 ± 2.7
323.15 K, x1 = 0.9012	1329.92 ± 2.1	1378.6 ± 2.8
323.15 K, x1 = 1	1345.57 ± 2.2	1384.1 ± 2.9

CCCCCCn1cc[n+](C)c1.F[P-](F)(F)(F)(F)F [1-hexyl-3-methylimidazolium hexafluorophosphate] + C1CCOC1
Conditions	mass density [kg/m3]	speed of sound [m/s]
293.15 K, x1 = 0.1036	1001.33 ± 1.6	1328.7 ± 2.3
293.15 K, x1 = 0.2002	1074.85 ± 1.6	1349.2 ± 2.3
293.15 K, x1 = 0.2868	1123.69 ± 1.6	1366.6 ± 2.4
293.15 K, x1 = 0.4134	1175.92 ± 1.7	1385.4 ± 2.5
293.15 K, x1 = 0.5222	1209.22 ± 1.7	1398.2 ± 2.5
293.15 K, x1 = 0.6239	1233.91 ± 1.8	1408.8 ± 2.6
293.15 K, x1 = 0.6951	1248.83 ± 1.8	1414.7 ± 2.7
293.15 K, x1 = 0.7978	1267.15 ± 1.9	1423.7 ± 2.7
293.15 K, x1 = 0.8953	1282.62 ± 2	1430.4 ± 2.8
293.15 K, x1 = 1	1296.72 ± 2.1	1437.7 ± 2.9
298.15 K, x1 = 0.1036	996.523 ± 1.6	1308.8 ± 2.3
298.15 K, x1 = 0.2002	1070.1 ± 1.6	1330.9 ± 2.3
298.15 K, x1 = 0.2868	1119.03 ± 1.6	1348.8 ± 2.4
298.15 K, x1 = 0.4134	1171.43 ± 1.7	1370 ± 2.5
298.15 K, x1 = 0.5222	1204.92 ± 1.7	1383.3 ± 2.5
298.15 K, x1 = 0.6239	1229.78 ± 1.8	1394.6 ± 2.6
298.15 K, x1 = 0.6951	1244.72 ± 1.8	1400.1 ± 2.7
298.15 K, x1 = 0.7978	1263.02 ± 1.9	1409.8 ± 2.7
298.15 K, x1 = 0.8953	1278.55 ± 2	1417.1 ± 2.8
298.15 K, x1 = 1	1292.62 ± 2.1	1424.3 ± 2.9
303.15 K, x1 = 0.1036	991.33 ± 1.6	1287.5 ± 2.3
303.15 K, x1 = 0.2002	1065.16 ± 1.6	1311.7 ± 2.3
303.15 K, x1 = 0.2868	1114.11 ± 1.6	1331.2 ± 2.4
303.15 K, x1 = 0.4134	1166.92 ± 1.7	1352.9 ± 2.5
303.15 K, x1 = 0.5222	1200.49 ± 1.7	1367.7 ± 2.5
303.15 K, x1 = 0.6239	1225.49 ± 1.8	1379.7 ± 2.6
303.15 K, x1 = 0.6951	1240.35 ± 1.8	1386.4 ± 2.6
303.15 K, x1 = 0.7978	1258.87 ± 1.9	1395.8 ± 2.7
303.15 K, x1 = 0.8953	1274.54 ± 2	1403.8 ± 2.8
303.15 K, x1 = 1	1288.61 ± 2.1	1411.5 ± 2.9
308.15 K, x1 = 0.1036	986.423 ± 1.6	1267.3 ± 2.3
308.15 K, x1 = 0.2002	1060.21 ± 1.6	1293.6 ± 2.3
308.15 K, x1 = 0.2868	1109.47 ± 1.6	1314.3 ± 2.4
308.15 K, x1 = 0.4134	1162.51 ± 1.7	1338.2 ± 2.5
308.15 K, x1 = 0.5222	1196.52 ± 1.7	1353.7 ± 2.5
308.15 K, x1 = 0.6239	1221.41 ± 1.8	1365.4 ± 2.6
308.15 K, x1 = 0.6951	1236.28 ± 1.8	1372.3 ± 2.6
308.15 K, x1 = 0.7978	1255.02 ± 1.9	1382.1 ± 2.7
308.15 K, x1 = 0.8953	1270.73 ± 2	1390.9 ± 2.8
308.15 K, x1 = 1	1284.72 ± 2.1	1399 ± 2.9
313.15 K, x1 = 0.1036	981.583 ± 1.6	1247 ± 2.3
313.15 K, x1 = 0.2002	1055.56 ± 1.6	1275.7 ± 2.3
313.15 K, x1 = 0.2868	1105.02 ± 1.6	1298 ± 2.4
313.15 K, x1 = 0.4134	1158.19 ± 1.7	1322.6 ± 2.5
313.15 K, x1 = 0.5222	1192.16 ± 1.7	1339.2 ± 2.5
313.15 K, x1 = 0.6239	1217.23 ± 1.8	1351.9 ± 2.6
313.15 K, x1 = 0.6951	1232.35 ± 1.8	1358.4 ± 2.6
313.15 K, x1 = 0.7978	1251.08 ± 1.9	1369.7 ± 2.7
313.15 K, x1 = 0.8953	1266.85 ± 2	1379.6 ± 2.8
313.15 K, x1 = 1	1280.82 ± 2.1	1386.9 ± 2.9
318.15 K, x1 = 0.1036	976.176 ± 1.6	1226.8 ± 2.3
318.15 K, x1 = 0.2002	1050.65 ± 1.6	1257.8 ± 2.3
318.15 K, x1 = 0.2868	1100.21 ± 1.6	1281.7 ± 2.4
318.15 K, x1 = 0.4134	1153.59 ± 1.7	1307.3 ± 2.5
318.15 K, x1 = 0.5222	1187.55 ± 1.7	1324.1 ± 2.5
318.15 K, x1 = 0.6239	1212.63 ± 1.8	1337.8 ± 2.6
318.15 K, x1 = 0.6951	1227.99 ± 1.8	1345.7 ± 2.6
318.15 K, x1 = 0.7978	1246.87 ± 1.9	1357.4 ± 2.7
318.15 K, x1 = 0.8953	1262.74 ± 2	1367.7 ± 2.8
318.15 K, x1 = 1	1276.37 ± 2.1	1375 ± 2.9
323.15 K, x1 = 0.1036	971.026 ± 1.7	1207.5 ± 2.3
323.15 K, x1 = 0.2002	1045.83 ± 1.6	1240.6 ± 2.3
323.15 K, x1 = 0.2868	1095.6 ± 1.6	1265.7 ± 2.4
323.15 K, x1 = 0.4134	1148.94 ± 1.7	1291.2 ± 2.5
323.15 K, x1 = 0.5222	1183.5 ± 1.7	1309.2 ± 2.5
323.15 K, x1 = 0.6239	1208.58 ± 1.8	1323.8 ± 2.6
323.15 K, x1 = 0.6951	1224.2 ± 1.8	1332.8 ± 2.6
323.15 K, x1 = 0.7978	1243.02 ± 1.9	1345.3 ± 2.7
323.15 K, x1 = 0.8953	1258.69 ± 2	1355.6 ± 2.8
323.15 K, x1 = 1	1272.45 ± 2.1	1363.3 ± 2.9
